The test system of assay [1] is B16 tumor cells (mouse melanoma cells). Kind of assay: B16 melanoma tumor-bearing mouse model, tumor growth. Format: in vivo. The conditions noted are these: low-dose FGK45.5 (75 μg in total); inhibitors intraperitoneal once a day Day 7 to Day 16; FIG. 2a. The procedure:
We used a mouse B16 melanoma model extensively used in researches and having relatively high immunogenicity (C57BL/6 B16 Tumor-Bearing Mouse Model): C57BL/6 mice (8-10-week-old, n=5/group) were subcutaneously inoculated with 7×10^5 B16 tumor cells (mouse melanoma cells), and about 8 days after inoculation of tumor cells when tumors became touchable, anti-CD40 agonistic antibody was administered.
The mice were monitored every day, and tumors were measured with calipers every four days. The tumors were measured for length (a) and width (b), and tumor volume=ab^2/2.
Dosage regimen: These tumor-bearing mice were treated using low-dose 25 μg of FGK45.5 (mouse anti-CD40 agonistic antibody) for three times, 75 μg in total (at Day 8, Day 11, and Day 14) or high-dose 40 μg for 5 times, 200 μg in total (at Day 8, Day 11, Day 14, Day 17, and Day 20) or 40 μg with Isotype Control Rat IgG for 5 times (at Day 8, Day 11, Day 14, Day 17, and Day 20). Subcutaneous injection was made between the tumor and the draining lymph node at the groin. 72 hours after the last injection of each group, samples of mouse blood serum were tested for alanine transaminase (ALT, a known indicator of liver tissue injury).
The establishment of the B16 melanoma tumor-bearing mouse model and the dosage regimens of low-dose and high-dose FGK45.5 followed Example 1. […]

The next assay relates to B16 tumor. Kind of assay: CD19+ B cell eradication experiment in B16 tumor-bearing mice, tumor growth. Format: in vivo, mouse. The conditions noted are these: 250 μg anti-CD19 antibody (clone 1d3) intraperitoneal at day 6, 7 and 15; low-dose FGK45.5; FIG. 5b. How it is done: To some of the B16 tumor-bearing mice, the anti-CD19 antibody was used first to kill B cells, and then Rat IgG or FGK45.5 or FGK45.5 combined with the PPARδ inhibitor (GSK3787) was administered for treatment. Growth of the tumors was observed. Treatment with Rat IgG, FGK45.5, and FGK45.5 in combination with the PPARδ inhibitor were taken as control groups.
CD19^+ B cell Eradication Experiment: At the 6th day, 7th day, and 15th day after inoculation of B16 cells, 250 μg anti-CD19 antibody (clone 1d3) was administered to tumor-bearing mice through intraperitoneal injection, and the eradication rate of B cells as measured using FACS should be 90% or more.

The test system of assay [2] is CD19+CD24hiIgDlo/− B cells. Kind of assay: Surface marker, PPARδ and Ki67 flow cytometry of B cell subpopulations in draining lymph nodes. Format: in vivo, mouse. The procedure: For verifying this assumption, the experimental scheme of Example 4 was used. The mice of all groups were sacrificed at the 24th hour after the last injection of GSK3787 (i.e., the 72nd hour after the last FGK45.5 injection), and various surface marker analyses were conducted on the B cells isolated from lymph nodes of tumor-bearing mice to identify surface markers of B cell subpopulations having immunosuppressive effects and the effects of different treatments on B cell subpopulations having immunosuppressive effects.
At the 24th hour after the last GSK3787 injection, tumor draining lymph nodes of differently treated mice were sampled. The lymph nodes at the same body portion in natural, tumor-free mice were also sampled as the control group. The lymph nodes were ground into single-cell suspension. Cells from different lymph nodes were stained using various fluorescence labeling antibodies for flow cytometry assays.
(A flow cytometer gives signals particle by particle.)

In assay [3] the test system is CD19+CD24hiIgDlo/− B cells. Nature of the assay: Co-culture of sorted B cell subpopulations from treated mice with CFSE-labelled CD4+ T cells. The conditions noted are these: B cells:T cells 1:1, 72 hours; FIG. 8a. Format: cell-based, mouse. The procedure:
For evaluating the function-regulating effects on CD19^+CD24^hiIgD^lo/− B cells, the experimental scheme of Example 4 was employed. 24 hours after the last GSK3787 injection (i.e., 72 hours after the last FGK45.5 injection), mice of all groups were sacrificed. CD19^+CD24^hiIgD^lo/− B cell population and CD19^+CD24^loIgD^hiB cell population were isolated form draining lymph nodes of differently treated tumor-bearing mice using flow cytometry. Purified CD4^+ T cells from normal mice were labelled with 2.5 μM CFSE in vitro. The CFSE-labelled cells were resuspended in complete RPMI 1640 culture medium at 1×10^6/ml, and transferred into a 96-well plate coated with 10 μg/ml anti-CD3E antibody at 4° C. overnight. The B cells purified from draining lymph nodes and the foregoing T cells (1:1) were co-cultured for 72 hours in the foregoing 96-well plate containing 1 μg/ml anti-CD28 mAb for use in flow cytometry assays. The proliferation of the CFSE-labelled T cells was calculated using the equation: (1-MFI value of CFSE of T Cells in Experimental Group/MFI value of CFSE of B-cell-free T Cells in Control Group)[…].

Assay [4] deals with MB49 cells (mouse bladder cancer cells). Kind of assay: MB49 bladder cancer tumor-bearing mouse model, tumor growth. Format: in vivo. The conditions noted are these: doses and regimens of FIG. 2a; FIG. 9. The source says:
From the results above, we anticipate that the PPARδ inhibitor could also enhance therapeutic effects of immunotherapeutic drug on tumors in other tumor models. In order to verify such possibility, we examined the therapeutic effects of the PPARδ inhibitor in combination with FGK45.5 on MB49 bladder cancer cell tumor-bearing mice. C57BL/6 mice (8 to 10 weeks, n=5/group, 4 groups) are subcutaneously inoculated with 7×10^5 MB49 cells (mouse bladder cancer cells) and about 8 days after inoculation of tumor cells when tumors became touchable, Rat IgG, or FGK45.5, or PPARδ inhibitor (GSK3787), or FGK45.5 in combination with PPARδ inhibitor (GSK3787) was administered. Tumor growth condition was monitored.

Assay [5] concerns B cells from draining lymph nodes. Nature of the assay: Inhibition of CFSE-labelled CD4+ T cell proliferation by B cells from draining lymph nodes of treated tumor-bearing mice. Format: cell-based, mouse. The conditions noted are these: B cells:T cells 1:1, co-cultured 72 hours; FIG. 5a. The procedure: The next point was to verify whether the PPARδ inhibitor enhances immunotherapy through affecting B cells. First, the ability of B cells in draining lymph nodes of tumor-bearing mice treated differently to inhibit proliferation of activated T cells was examined in vitro. Purified C D4^+ T cells from normal mice were labelled using 2.5 μM CFSE in vitro. The CFSE-labelled cells were then resuspended in complete RPMI 1640 culture medium at 1×10^6/ml, and transferred into a 96-well plate that had been coated with 10 μg/ml anti-CD3ε antibody at 4° C. overnight. B cells purified from draining lymph nodes and the foregoing T cells (1:1) were co-cultured for 72 hours in the foregoing 96-well plate containing 1 μg/ml anti-CD28 mAb, and a flow cytometry assay was conducted. The cell proliferation rate of the CFSE-labelled T cells was calculated using the equation: (1-MFI value of CFSE of T Cells in Experimental Group/MFI value of CFSE of B-cell-free T Cells in Control Group)×100%. MFI refers to the mean fluorescence intensity.

The test system of assay [6] is human CD19+CD24hiIgDlo/− B cells. Nature of the assay: Suppression of T cell IFNγ secretion by human CD19+CD24hiIgDlo/− B cells cultured with GSK3787. Format: cell-based. The conditions noted are these: cultured 24 hours with GSK3787. The procedure: B cells were isolated and gathered from the peripheral blood of multiple normal blood donors or patients, and CD19^+CD24^hiIgD^lo/− B cells were isolated from the gathered B cells and cultured for 24 hours in complete RPMI 1640 culture medium with or without the PPARδ inhibitor GSK3787. Then these B cells were washed twice to remove the PPARδ inhibitor, resuspended in complete RPMI 1640 culture medium at 1×10^6/ml. CD4^+CD25^− T cells were isolated from blood of normal blood donors. The treated CD19^+CD24^hiIgD^lo/− B cells and these T cells (1:1) were co-cultured for 48 hours, Dynabeads were coated with anti-human CD3 mAb and anti-human CD28 mAb and placed on a 96-well U-shaped culture plate. Golgi^plug (BD Biosciences), PMA and ionomycin were added into the culture medium together for 6 hours. CD4^+ T cells were surface stained, perforated in the cytomembrane, and stained intracellularly using fluorescence labelled anti-human IFNγ, then analyzed using flow cytometry.

Assay [7] concerns lymphocytes in draining lymph nodes. Nature of the assay: Lymphocyte subpopulations in draining lymph nodes of B16 tumor-bearing mice (flow cytometry, cell counting). Format: in vivo, mouse. How it is done:
The C57BL/6 B16 tumor-bearing mouse model (mice subcutaneously inoculated with 7×10^5 B16 cells, 8 days after inoculation of tumor cells, mice with tumors touchable) of Example 1 was used. The experiment included the treatment group of low-dose FGK45.5, the treatment group of low-dose FGK45.5 in combination with the PPARδ inhibitor, the treatment group of using the PPARδ inhibitor solely, and the isotype control Rat IgG treatment group. 24 hours after the last injection of GSK3787 (i.e., 72 hours after the last FGK45.5 injection), the mice of all group were sacrificed. Cells at lymph nodes of mice from all groups were sampled for flow cytometry assays and cell counting.

`O=C(Nc1ccncc1)c1cc([N+](=O)[O-])ccc1Cl` [T0070907]: the “anti-tumor effects (speed of tumor growth)” value in assay [1] was “almost no anti-tumor effects”.

Turning to `O=C(NCCS(=O)(=O)c1ccc(C(F)(F)F)cn1)c1ccc(Cl)cc1` [GSK3787], the “therapeutic effects on B16 tumors with B cells eradicated” value with B16 tumor is “lost its function of enhancing anti-tumor effects of FGK45.5”. In assay [2] (B16 tumor-bearing mice, 24th hour after last GSK3787 injection, FIGS. 7a, b), the “proportion of the CD19+CD24hiIgDlo/− B cell subpopulation in draining lymph nodes” value is “decreased significantly”. Moreover, in assay [2] (FIG. 7e, f), the “Ki67 expression of CD19+CD24hiIgDlo/− B cells” value was “reduced increase in Ki67 expression”. The “suppressive effects of CD19+CD24hiIgDlo/− B cells from draining lymph nodes of tumor-bearing mice on proliferation of activated CD4+ T cells” value in assay [3] is given as “reduced suppressive effects”. Besides, in assay [4], the “therapeutic effects on MB49 tumors, GSK3787 in combination with FGK45.5” value is on record as “could further improve the effect of FGK45.5” and the “therapeutic effects on MB49 tumors, used solely” value was “no therapeutic effects”. For the same compound, in assay [5], the “inhibition of CD4 T cell proliferation by B cells from draining lymph nodes of treated tumor-bearing mice” value is “decreased inhibition”. The “suppressive activity of human CD19+CD24hiIgDlo/− B cells (IFNγ secretion of activated T cells)” value in assay [6] (B cells of cancer patients (NSCLC)) is given as “significantly reduced”. For the same compound, in assay [6] (B cells of healthy subjects), the “suppressive activity of human CD19+CD24hiIgDlo/− B cells (IFNγ secretion of activated T cells)” value is “significantly reduced”. Besides, the “proportions of CD4/CD19 cells in draining lymph nodes” value in assay [7] (FIG. 4c) is listed as “basically comparable”. The “absolute count of CD45+ cells in draining lymph nodes” value in assay [7] (low-dose FGK45.5, 24 hours after last GSK3787 injection, FIG. 4a) is on record as “did not change”. For the same compound, in assay [7] (low-dose FGK45.5, FIG. 4b), the “absolute count and proportion of CD11c+ cells in draining lymph nodes” value is “basically the same”; the “cell counts of CD4+ T and CD8+ T cells and their proportions in CD45+ cells in draining lymph nodes” value was “consistent”. In assay [1], the “anti-tumor effects (speed of tumor growth)” value was “almost no anti-tumor effects”.

The values are drawn from US20240033257A1, “USE OF PPAR-DELTA INHIBITOR IN COMBINATION WITH IMMUNOTHERAPEUTIC DRUG FOR PREPARING ANTI-TUMOR DRUG” (THE FIRST HOSPITAL OF JILIN UNIVERSITY, priority 2021, published 2024).
